Structures can show the parent of a compound that is named as a salt.
What follows are compounds tested against T1, human cloned 5-HT6 receptors (Homo sapiens, UniProt P50406) (assay: 5-HT6 receptor affinity following the procedures outlined in WO98/27081). Details: read-out: pKi values at human cloned 5-HT6 receptors (converted).
T1 construct: expressed in transfected cells
T1 sequence (P50406 whole entry): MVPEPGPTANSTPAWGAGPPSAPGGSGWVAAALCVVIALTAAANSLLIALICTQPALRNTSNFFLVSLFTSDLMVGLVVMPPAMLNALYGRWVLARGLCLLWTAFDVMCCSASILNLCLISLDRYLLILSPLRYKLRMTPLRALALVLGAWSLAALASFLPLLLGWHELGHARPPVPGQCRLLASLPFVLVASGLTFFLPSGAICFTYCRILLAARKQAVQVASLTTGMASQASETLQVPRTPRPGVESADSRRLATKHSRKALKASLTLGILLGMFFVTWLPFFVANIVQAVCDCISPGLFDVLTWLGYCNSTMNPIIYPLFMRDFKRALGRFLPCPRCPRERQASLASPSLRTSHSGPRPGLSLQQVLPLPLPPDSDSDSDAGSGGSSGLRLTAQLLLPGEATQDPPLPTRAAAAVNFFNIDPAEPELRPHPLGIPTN
Assay type: binding
Source text: Compounds can be tested following the procedures outlined in WO98/27081.
With `O=S(=O)(c1ccccc1)c1c[nH]c2c(N3CCNCC3)nccc12` [Example E6, 7-piperazin-1-yl-3-phenylsulfonyl-1H-pyrrolo[2,3-c]pyridine hydrochloride] the Ki was less than 31.6 nM. `O=S(=O)(c1ccccc1F)c1c[nH]c2c(N3CCNCC3)nccc12` [Example E7, 3-(2-Fluorophenyl)sulfonyl-7-piperazin-1-yl-1H-pyrrolo[2,3-c]pyridine hydrochloride] showed a Ki of less than 31.6 nM. With `O=S(=O)(c1cccc(F)c1)c1c[nH]c2c(N3CCNCC3)nccc12` [Example E8, 3-(3-Fluorophenyl)sulfonyl-7-piperazin-1-yl-1H-pyrrolo[2,3-c]pyridine hydrochloride] the Ki was less than 31.6 nM. `Cc1cc(N2CCNCC2)c2ccc(S(=O)(=O)c3ccccc3)cc2n1` [Example E9, 2-Methyl-4-piperazin-1-yl-7-phenylsulfonylquinoline hydrochloride] was tested, and the Ki was less than 10 nM. With `O=S(=O)(c1ccccc1)c1ccnc2c(N3CCNCC3)cccc12` [Example E10, 4-Phenylsulfonyl-8-piperazin-1-yl quinoline] the Ki was less than 10 nM. For `O=S(=O)(c1ccccc1)c1ccnc2c(N3CCNCC3)cccc12` [Example E11, 4-Phenylsulfonyl-8-piperazin-1-yl-quinoline hydrochloride], the Ki was less than 10 nM. For `Cc1cc(S(=O)(=O)c2ccccc2)c2cccc(N3CCNCC3)c2n1` [Example E12, 2-Methyl-4-phenylsulfonyl-8-piperazin-1-yl-quinoline], the Ki was less than 10 nM. Compound `Cc1cc(S(=O)(=O)c2ccccc2)c2cccc(N3CCNCC3)c2n1` [Example E13, 2-Methyl-4-phenylsulfonyl-8-piperazin-1-ylquinoline hydrochloride] has a Ki of less than 10 nM. `Cc1cc(S(=O)(=O)c2ccccc2F)c2cccc(N3CCNCC3)c2n1` [Example E14] showed a Ki of less than 10 nM. For `Cc1cc(S(=O)(=O)c2cccc(F)c2)c2cccc(N3CCNCC3)c2n1` [Example E15], the Ki was less than 10 nM. `Cc1cc(S(=O)(=O)c2cccc(Cl)c2)c2cccc(N3CCNCC3)c2n1` [Example E16] gave a Ki of less than 10 nM.
